Molecular target: T1, SARS-CoV-2 Mpro (3CL protease) (Severe acute respiratory syndrome coronavirus 2, UniProt P0DTD1)
T1 construct: gene rep
Assay: fluorogenic substrate 3CL protease assay kit
Type: biochemical
Conditions: read-out: IC50 (μg ml^-1) (converted)
Excerpt: fluorogenic substrate 3CL protease assay kit on SARS-CoV-2 Mpro (3CL protease)

Row | Structure (SMILES) | IC50
1 | CC(C)NCC(O)COc1ccc(COCCOC(C)C)cc1 (stereo not shown) [compound 8, Bisoprolol] | 364 µM
2 | OC(CNCC(O)C1CCc2cc(F)ccc2O1)C1CCc2cc(F)ccc2O1 (stereo not shown) [compound 20, Nebivolol] | 148 µM
3 | COc1ccccc1OCCNCC(O)COc1cccc2[nH]c3ccccc3c12 (stereo not shown) [compound 17, Carvedilol] | 503 µM
4 | Cc1cccc(C)c1OCC(=O)N[C@@H](Cc1ccccc1)[C@@H](O)C[C@H](Cc1ccccc1)NC(=O)[C@H](C(C)C)N1CCCNC1=O [Lopinavir] | 117 µM

Reference: paper PMC9043270, “β-Blockers bearing hydroxyethylamine and hydroxyethylene as potential SARS-CoV-2 Mpro inhibitors: rational based design, in silico, in vitro, and SAR studies for lead optimization” (RSC Advances, 2021)
